Assay results published in the kinase profiling compilation of Christmann-Franck et al. (2016).

Tests used:
Assay in all cases: radiometric filter-binding kinase assay, Kinase HotSpot
Settings in all cases: compound 0.5 µM; ATP 10 µM
[1] = target: STK38 (human) (UniProt Q15208)
[2] = target: LIMK1 (human) (UniProt P53667)
[3] = target: JAK3 JH1 JH2 (human) (UniProt P52333)
[4] = target: ULK3 (human) (UniProt Q6PHR2)
[5] = target: NEK7 (human) (UniProt Q8TDX7)
[6] = target: INSR (human) (UniProt P06213)
[7] = target: RPS6KA1 KD1 KD2 (human) (UniProt Q15418)
[8] = target: MYO3B (human) (UniProt Q8WXR4)
[9] = target: CHEK2 (human) (UniProt O96017)
[10] = target: EPHA1 (human) (UniProt P21709)
[11] = target: PRKACG (human) (UniProt P22612)
[12] = target: DAPK1 (human) (UniProt P53355)
[13] = target: RPS6KB2 (human) (UniProt Q9UBS0)
[14] = target: FGFR3 (human) (UniProt P22607)
[15] = system: ARAF (human), P10398 [Y301D/Y302D]
[16] = target: PDPK1 (human) (UniProt O15530)
[17] = target: IKBKE (human) (UniProt Q14164)
[18] = target: AURKB (human) (UniProt Q96GD4)
[19] = target: EGFR (human) (UniProt P00533)
[20] = target: CDK1 CCNB1 (human) (UniProt P06493+P14635)
[21] = target: TTK (human) (UniProt P33981)
[22] = target: TLK2 (human) (UniProt Q86UE8)
[23] = target: PDGFRB (human) (UniProt P09619)
[24] = target: FER (human) (UniProt P16591)
[25] = target: EPHA6 (human) (UniProt Q9UF33)
[26] = target: PAK4 (human) (UniProt O96013)
[27] = target: CSNK2A2 (human) (UniProt P19784)
[28] = target: CSNK1G2 (human) (UniProt P78368)
[29] = target: BRAF (human) (UniProt P15056)
[30] = target: TAOK1 (human) (UniProt Q7L7X3)
[31] = target: TSSK1B (human) (UniProt Q9BXA7)
[32] = target: PKN2 (human) (UniProt Q16513)
[33] = target: CAMK2D (human) (UniProt Q13557)
[34] = target: MAPK3 (human) (UniProt P27361)
[35] = target: ABL2 (human) (UniProt P42684)
[36] = target: PRKCB1 (human) (UniProt P05771)
[37] = target: HCK (human) (UniProt P08631)
[38] = target: HIPK1 (human) (UniProt Q86Z02)
[39] = target: TNK2 (human) (UniProt Q07912)
[40] = target: CAMKK2 (human) (UniProt Q96RR4)
[41] = target: CLK4 (human) (UniProt Q9HAZ1)
[42] = target: MAPK12 (human) (UniProt P53778)
Sequence of MAPK12 (human) (P53778 whole entry, looked up): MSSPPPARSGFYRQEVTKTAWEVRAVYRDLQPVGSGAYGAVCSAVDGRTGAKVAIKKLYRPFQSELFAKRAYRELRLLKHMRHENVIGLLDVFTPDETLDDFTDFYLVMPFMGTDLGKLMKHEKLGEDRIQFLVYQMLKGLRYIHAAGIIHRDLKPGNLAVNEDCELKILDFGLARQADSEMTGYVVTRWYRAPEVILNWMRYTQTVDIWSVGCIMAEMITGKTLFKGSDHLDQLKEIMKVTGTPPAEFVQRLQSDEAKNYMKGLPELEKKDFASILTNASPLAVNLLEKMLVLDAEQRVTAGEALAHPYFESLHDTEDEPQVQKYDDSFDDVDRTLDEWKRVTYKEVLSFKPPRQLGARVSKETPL

Sequence of BRAF (human) (P15056 whole entry, looked up): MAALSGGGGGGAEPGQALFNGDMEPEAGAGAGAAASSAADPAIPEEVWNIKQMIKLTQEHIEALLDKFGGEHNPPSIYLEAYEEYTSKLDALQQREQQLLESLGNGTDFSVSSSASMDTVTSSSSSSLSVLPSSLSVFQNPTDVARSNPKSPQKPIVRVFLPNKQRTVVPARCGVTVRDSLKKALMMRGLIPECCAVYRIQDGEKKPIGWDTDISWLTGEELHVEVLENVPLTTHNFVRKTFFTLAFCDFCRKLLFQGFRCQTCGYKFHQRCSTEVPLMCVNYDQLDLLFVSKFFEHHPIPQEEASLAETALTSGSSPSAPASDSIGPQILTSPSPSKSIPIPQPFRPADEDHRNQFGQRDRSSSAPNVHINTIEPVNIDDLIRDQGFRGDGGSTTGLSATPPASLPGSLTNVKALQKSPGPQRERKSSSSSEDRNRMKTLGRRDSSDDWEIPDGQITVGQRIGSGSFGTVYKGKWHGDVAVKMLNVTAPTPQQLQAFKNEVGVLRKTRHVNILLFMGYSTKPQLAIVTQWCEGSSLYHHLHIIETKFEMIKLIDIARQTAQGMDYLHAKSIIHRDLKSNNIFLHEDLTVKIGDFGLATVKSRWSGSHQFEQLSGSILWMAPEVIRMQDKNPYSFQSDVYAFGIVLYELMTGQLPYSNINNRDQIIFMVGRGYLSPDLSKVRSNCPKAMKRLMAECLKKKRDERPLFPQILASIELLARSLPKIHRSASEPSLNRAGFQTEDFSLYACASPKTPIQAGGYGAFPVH
Sequence of FER (human) (P16591 whole entry, looked up): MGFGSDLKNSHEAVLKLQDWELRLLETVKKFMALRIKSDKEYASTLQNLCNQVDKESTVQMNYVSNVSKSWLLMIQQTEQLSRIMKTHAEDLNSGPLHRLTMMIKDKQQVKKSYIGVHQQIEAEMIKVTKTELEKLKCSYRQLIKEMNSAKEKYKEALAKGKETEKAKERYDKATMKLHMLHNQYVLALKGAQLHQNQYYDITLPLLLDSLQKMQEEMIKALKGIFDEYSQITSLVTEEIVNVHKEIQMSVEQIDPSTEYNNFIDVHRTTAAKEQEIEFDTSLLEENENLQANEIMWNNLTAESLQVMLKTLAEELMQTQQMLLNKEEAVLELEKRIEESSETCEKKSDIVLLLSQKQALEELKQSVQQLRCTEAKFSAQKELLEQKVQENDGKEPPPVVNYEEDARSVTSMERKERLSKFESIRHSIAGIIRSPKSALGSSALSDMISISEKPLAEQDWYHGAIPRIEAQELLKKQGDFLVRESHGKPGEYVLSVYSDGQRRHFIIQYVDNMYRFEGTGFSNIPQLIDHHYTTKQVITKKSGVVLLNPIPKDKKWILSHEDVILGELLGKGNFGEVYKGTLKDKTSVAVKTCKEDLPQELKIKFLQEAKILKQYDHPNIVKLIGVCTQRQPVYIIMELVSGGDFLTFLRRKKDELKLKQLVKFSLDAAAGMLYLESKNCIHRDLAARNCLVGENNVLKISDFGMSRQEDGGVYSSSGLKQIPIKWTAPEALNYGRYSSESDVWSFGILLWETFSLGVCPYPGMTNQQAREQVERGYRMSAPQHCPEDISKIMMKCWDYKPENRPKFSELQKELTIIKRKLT
Sequence of PAK4 (human) (O96013 whole entry, looked up): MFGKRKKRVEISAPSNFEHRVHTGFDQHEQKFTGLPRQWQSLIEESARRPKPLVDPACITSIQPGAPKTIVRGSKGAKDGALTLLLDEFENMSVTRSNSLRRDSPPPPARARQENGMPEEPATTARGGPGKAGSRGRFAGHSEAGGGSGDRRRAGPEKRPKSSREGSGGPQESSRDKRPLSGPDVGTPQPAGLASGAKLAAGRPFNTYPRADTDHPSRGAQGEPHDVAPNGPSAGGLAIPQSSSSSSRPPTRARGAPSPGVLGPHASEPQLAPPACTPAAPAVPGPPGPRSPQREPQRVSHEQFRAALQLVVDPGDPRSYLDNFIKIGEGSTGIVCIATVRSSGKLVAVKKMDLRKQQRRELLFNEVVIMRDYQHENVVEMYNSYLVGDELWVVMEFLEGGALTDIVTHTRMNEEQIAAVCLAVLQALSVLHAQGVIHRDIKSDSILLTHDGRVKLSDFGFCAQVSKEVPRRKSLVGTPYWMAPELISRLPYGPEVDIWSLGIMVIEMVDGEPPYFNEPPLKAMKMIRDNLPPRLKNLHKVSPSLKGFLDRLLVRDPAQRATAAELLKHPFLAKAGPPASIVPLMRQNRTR
Sequence of DAPK1 (human) (P53355 whole entry, looked up): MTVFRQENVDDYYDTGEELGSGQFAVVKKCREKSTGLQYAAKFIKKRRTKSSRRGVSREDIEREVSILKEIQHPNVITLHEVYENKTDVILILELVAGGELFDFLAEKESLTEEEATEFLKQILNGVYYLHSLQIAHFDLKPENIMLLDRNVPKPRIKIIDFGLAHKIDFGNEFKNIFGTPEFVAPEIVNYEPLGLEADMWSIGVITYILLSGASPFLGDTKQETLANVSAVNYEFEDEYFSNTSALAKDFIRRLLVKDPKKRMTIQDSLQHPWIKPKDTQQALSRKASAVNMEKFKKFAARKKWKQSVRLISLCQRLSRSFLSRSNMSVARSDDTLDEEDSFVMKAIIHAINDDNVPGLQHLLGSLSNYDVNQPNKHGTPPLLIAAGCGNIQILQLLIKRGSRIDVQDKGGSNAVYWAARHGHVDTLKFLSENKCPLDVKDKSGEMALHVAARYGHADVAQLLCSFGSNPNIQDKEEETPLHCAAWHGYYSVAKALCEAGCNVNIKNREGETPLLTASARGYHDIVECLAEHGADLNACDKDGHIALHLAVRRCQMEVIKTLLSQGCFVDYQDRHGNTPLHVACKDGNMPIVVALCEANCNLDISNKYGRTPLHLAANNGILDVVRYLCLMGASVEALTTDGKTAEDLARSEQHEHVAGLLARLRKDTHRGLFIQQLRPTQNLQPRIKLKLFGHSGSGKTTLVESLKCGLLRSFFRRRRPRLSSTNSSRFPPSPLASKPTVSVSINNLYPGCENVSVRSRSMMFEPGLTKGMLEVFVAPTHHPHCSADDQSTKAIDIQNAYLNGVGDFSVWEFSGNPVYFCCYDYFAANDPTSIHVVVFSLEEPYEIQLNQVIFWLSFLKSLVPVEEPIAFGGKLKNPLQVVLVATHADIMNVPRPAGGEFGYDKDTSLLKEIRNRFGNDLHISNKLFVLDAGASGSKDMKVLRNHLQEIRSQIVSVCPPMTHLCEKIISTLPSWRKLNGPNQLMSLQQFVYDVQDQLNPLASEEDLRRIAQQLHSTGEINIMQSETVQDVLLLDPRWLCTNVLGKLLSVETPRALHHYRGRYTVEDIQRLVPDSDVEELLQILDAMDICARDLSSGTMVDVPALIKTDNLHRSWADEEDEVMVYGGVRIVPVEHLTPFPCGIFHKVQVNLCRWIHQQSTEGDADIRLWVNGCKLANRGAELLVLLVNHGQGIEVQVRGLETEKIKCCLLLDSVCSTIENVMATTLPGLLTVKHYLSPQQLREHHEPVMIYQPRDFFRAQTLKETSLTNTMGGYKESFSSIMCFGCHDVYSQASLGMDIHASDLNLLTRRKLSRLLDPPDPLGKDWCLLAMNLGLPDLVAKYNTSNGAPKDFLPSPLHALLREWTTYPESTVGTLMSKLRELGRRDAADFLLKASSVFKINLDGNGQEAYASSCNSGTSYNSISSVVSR
Sequence of CHEK2 (human) (O96017 whole entry, looked up): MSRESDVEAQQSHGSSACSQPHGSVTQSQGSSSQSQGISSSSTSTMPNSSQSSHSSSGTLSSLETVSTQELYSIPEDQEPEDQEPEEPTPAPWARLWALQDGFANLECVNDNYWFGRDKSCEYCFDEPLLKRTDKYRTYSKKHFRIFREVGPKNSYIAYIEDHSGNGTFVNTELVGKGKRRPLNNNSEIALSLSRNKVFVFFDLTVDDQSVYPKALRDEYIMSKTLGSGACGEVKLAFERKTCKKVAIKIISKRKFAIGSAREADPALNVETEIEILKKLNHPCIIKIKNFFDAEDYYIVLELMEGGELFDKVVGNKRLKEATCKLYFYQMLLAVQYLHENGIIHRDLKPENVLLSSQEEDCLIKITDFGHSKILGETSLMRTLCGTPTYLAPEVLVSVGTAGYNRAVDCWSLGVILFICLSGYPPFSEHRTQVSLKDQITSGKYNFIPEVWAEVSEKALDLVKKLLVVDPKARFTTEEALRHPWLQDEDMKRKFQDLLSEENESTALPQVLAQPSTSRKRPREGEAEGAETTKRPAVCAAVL
Sequence of ULK3 (human) (Q6PHR2 whole entry, looked up): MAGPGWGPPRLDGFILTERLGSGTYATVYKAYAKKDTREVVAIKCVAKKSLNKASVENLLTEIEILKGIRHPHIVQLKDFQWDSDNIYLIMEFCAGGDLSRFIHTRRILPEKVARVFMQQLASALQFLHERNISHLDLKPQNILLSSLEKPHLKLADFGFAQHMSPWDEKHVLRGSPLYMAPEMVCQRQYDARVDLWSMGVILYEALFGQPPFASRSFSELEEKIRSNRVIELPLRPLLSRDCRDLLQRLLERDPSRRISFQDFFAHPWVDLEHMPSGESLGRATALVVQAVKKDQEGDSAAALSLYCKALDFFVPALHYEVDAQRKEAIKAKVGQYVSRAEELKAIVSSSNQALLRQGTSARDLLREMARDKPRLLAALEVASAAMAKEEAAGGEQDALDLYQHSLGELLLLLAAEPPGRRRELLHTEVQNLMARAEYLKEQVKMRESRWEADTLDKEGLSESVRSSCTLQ

## Cc1ccc(NC(=O)c2ccc(CN3CCN(C)CC3)cc2)cc1Nc1nc(-c2cccnc2)cs1
[1]
  residual activity: 95.9%
[2]
  residual activity: 98.1%
[3]
  residual activity: 93.7%
[4]
  residual activity: 104%
[5]
  residual activity: 96.3%
[6]
  residual activity: 99%
[7]
  residual activity: 97.2%
[8]
  residual activity: 82.6%
[9]
  residual activity: 101%
[10]
  residual activity: 96.5%
[11]
  residual activity: 110%
[12]
  residual activity: 97.5%
[13]
  residual activity: 101%
[14]
  residual activity: 94.3%
[15]
  residual activity: 102%
[16]
  residual activity: 101%
[17]
  residual activity: 97.2%
[18]
  residual activity: 99.5%
[19]
  residual activity: 99.6%
[20]
  residual activity: 97.6%
[21]
  residual activity: 112%
[22]
  residual activity: 94.5%
[23]
  residual activity: 17.3%
[24]
  residual activity: 97.6%
[25]
  residual activity: 98.2%
[26]
  residual activity: 103%
[27]
  residual activity: 86.7%
[28]
  residual activity: 92.9%
[29]
  residual activity: 92.3%
[30]
  residual activity: 98.5%
[31]
  residual activity: 100%
[32]
  residual activity: 108%
[33]
  residual activity: 106%
[34]
  residual activity: 103%
[35]
  residual activity: 57.7%
[36]
  residual activity: 101%
[37]
  residual activity: 55.7%
[38]
  residual activity: 97.4%
[39]
  residual activity: 95.7%
[40]
  residual activity: 101%
[41]
  residual activity: 93.3%
[42]
  residual activity: 96.9%
